Experimental data from patent US20240132431A1, “METHOD FOR ALKYLATING ACIDIC FUNCTIONAL GROUP” (Chugai Seiyaku Kabushiki Kaisha, priority 2021, published 2024).
Blank lines part the entries; values can stand above or below the compound they belong to.

Biological target: T1, Bcl-2 protein (Recombinant Human Bcl-2 Protein) (Homo sapiens, UniProt P10415)
T1 construct: purchased Novus NBP2-34889
Assay: Binding evaluation of mixture library compounds to Bcl-2 using AS-MS (affinity selection mass spectrometry)
Details: for ASMS ratio (%) n = 1: replicate n = 1; for ASMS ratio (%) n = 1 / ASMS ratio (%) n = 2: ASMS Ratio(%)=(A−C)/B×100; for ASMS ratio (%) n = 2: replicate n = 2
Procedure, shortened: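 ASMS Ratio (%) was calculated as (A−C)/B×100, where A is the protein sample after SEC, B the protein-free sample without SEC and C the protein-free sample after SEC. Each compound was at […] in a 1200-member pool with 20 μM Bcl-2, incubated 1 h at 23° C.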

[1] = AS-MS on the mixture of 1200 library compounds
[2] = AS-MS, mixture of 1200 compounds, Bcl-2

T1 sequence (P10415 whole entry): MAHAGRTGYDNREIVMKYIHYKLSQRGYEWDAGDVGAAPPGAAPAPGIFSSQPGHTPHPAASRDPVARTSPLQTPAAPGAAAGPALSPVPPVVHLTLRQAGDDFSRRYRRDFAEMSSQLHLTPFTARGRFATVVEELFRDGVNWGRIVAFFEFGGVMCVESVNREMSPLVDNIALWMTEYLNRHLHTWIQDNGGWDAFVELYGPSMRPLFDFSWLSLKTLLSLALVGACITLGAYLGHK

ASMS ratio (%) (n = 1): 4.9% | ASMS ratio (%) (n = 2): −4.2%
Compound: CCOc1cncc(C#Cc2ccccc2CN2CCN(c3ccc(C(=O)NS(=O)(=O)C(C)(C)C)cc3)CC2)c1 [B2L070-01, N-tert-Butylsulfonyl-4-[4-[[2-[2-(5-ethoxypyridin-3-yl)ethynyl]phenyl]methyl]piperazin-1-yl]benzamide]

ASMS ratio (%) n = 1 (AS-MS, mixture library, Bcl-2): 21.3% | ASMS ratio (%) n = 2 (AS-MS, mixture library, Bcl-2): 8.5%
Compound: CCOc1cncc(-c2cc(CN3CCN(c4ccc(C(=O)NS(=O)(=O)c5ccc(NCCSc6ccccc6)c([N+](=O)[O-])c5)nn4)CC3)cc(OCC)c2)c1 [B2Q082-01, 6-[4-[[3-Ethoxy-5-(5-ethoxypyridin-3-yl)phenyl]methyl]piperazin-1-yl]-N-[3-nitro-4-(2-phenylsulfanylethylamino)phenyl]sulfonylpyridazine-3-carboxamide]

ASMS ratio (%) (n = 1): 2.6% | ASMS ratio (%) (n = 2): −1.2%
Compound: CCOc1cncc(-c2cc(CN3CCN(c4ccc(C(=O)NS(=O)(=O)C(C)(C)C)nn4)CC3)cc(OCC)c2)c1 [B2L082-01, N-tert-Butylsulfonyl-6-[4-[[3-ethoxy-5-(5-ethoxypyridin-3-yl)phenyl]methyl]piperazin-1-yl]pyridazine-3-carboxamide]

ASMS ratio (%) (n = 2): −63.9%
Compound: CCOc1cncc(-c2cc(CN3CCN(c4ccc(C(=O)NS(=O)(=O)c5ccc(NCCSc6ccccc6)c(C(F)(F)F)c5)cc4)CC3)cc(OCC)c2)c1 [B2R056-01, 4-[4-[[3-Ethoxy-5-(5-ethoxypyridin-3-yl)phenyl]methyl]piperazin-1-yl]-N-[4-(2-phenylsulfanylethylamino)-3-(trifluoromethyl)phenyl]sulfonylbenzamide]

ASMS ratio (%) n = 1 (AS-MS, mixture library, Bcl-2): 11.0% | ASMS ratio (%) n = 2 (AS-MS, mixture library, Bcl-2): −1.3%
Compound: CCOc1cncc(-c2cnn(-c3cc(C(=O)N4CCN(c5ccc(C(=O)NS(=O)(=O)c6ccc(NCCSc7ccccc7)c([N+](=O)[O-])c6)cc5)CC4)cc(C(F)(F)F)c3)c2)c1 [B2Q044-01, 4-[4-[3-[4-(5-Ethoxypyridin-3-yl)pyrazol-1-yl]-5-(trifluoromethyl)benzoyl]piperazin-1-yl]-N-[3-nitro-4-(2-phenylsulfanylethylamino)phenyl]sulfonylbenzamide]

ASMS ratio (%) (n = 1): 0.0% | ASMS ratio (%) (n = 2): −2.2%
Compound: CCOc1cccc(C#Cc2ccccc2CN2CCN(c3ccc(C(=O)NS(C)(=O)=O)cc3)CC2)c1 [B2I069-01]

ASMS ratio (%) n = 1 (AS-MS, mixture library, Bcl-2): 17.6% | ASMS ratio (%) n = 2 (AS-MS, mixture library, Bcl-2): −2.1%
Compound: CCOc1cccc(-c2cc(CN3CCN(c4ccc(C(=O)NS(=O)(=O)c5ccc(NCCSc6ccccc6)c([N+](=O)[O-])c5)nn4)CC3)cc(C(F)(F)F)c2)c1 [B2Q087-01, 6-[4-[[3-(3-Ethoxyphenyl)-5-(trifluoromethyl)phenyl]methyl]piperazin-1-yl]-N-[3-nitro-4-(2-phenylsulfanylethylamino)phenyl]sulfonylpyridazine-3-carboxamide]

ASMS ratio (%) (n = 1): 0.0% | ASMS ratio (%) (n = 2): 0.0%
Compound: CCOc1cncc(-c2cc(CN3CCN(c4ccc(C(=O)NS(=O)(=O)CCC(F)(F)F)nn4)CC3)cc(OC(F)(F)F)c2)c1 [B2N090-01, 6-[4-[[3-(5-Ethoxypyridin-3-yl)-5-(trifluoromethoxy)phenyl]methyl]piperazin-1-yl]-N-(3,3,3-trifluoropropylsulfonyl)pyridazine-3-carboxamide]

ASMS ratio (%) (n = 1): −15.0% | ASMS ratio (%) (n = 2): 0.0%
Compound: CCOc1cccc(-c2ccc(CN3CCN(c4ccc(C(=O)NS(=O)(=O)c5ccc(NCCSc6ccccc6)c(C(F)(F)F)c5)cc4)CC3)c(OC)c2)c1 [B2R053-01, 4-[4-[[4-(3-Ethoxyphenyl)-2-methoxyphenyl]methyl]piperazin-1-yl]-N-[4-(2-phenylsulfanylethylamino)-3-(trifluoromethyl)phenyl]sulfonylbenzamide]

ASMS ratio (%) n = 1 (AS-MS, mixture library, Bcl-2): 17.6% | ASMS ratio (%) n = 2 (AS-MS, mixture library, Bcl-2): 0.0%
Compound: CCOc1cccc(-c2ccc(CN3CCN(c4ccc(C(=O)NS(=O)(=O)c5ccc(NCCSc6ccccc6)c([N+](=O)[O-])c5)nn4)CC3)c(OC)c2)c1 [B2Q079-01, 6-[4-[[4-(3-Ethoxyphenyl)-2-methoxyphenyl]methyl]piperazin-1-yl]-N-[3-nitro-4-(2-phenylsulfanylethylamino)phenyl]sulfonylpyridazine-3-carboxamide]

ASMS ratio (%) n = 1 [1]: 3.8% | ASMS ratio (%) n = 2 [1]: 0.0%
Compound: CCOc1cccc(-c2cc(C(=O)N3CCN(c4ccc(C(=O)N(C)CC56CC7CC(CC(C7)C5)C6)cc4)CC3)cc(C(F)(F)F)c2)c1 [B3A039-01, N-(1-Adamantylmethyl)-4-[4-[3-(3-ethoxyphenyl)-5-(trifluoromethyl)benzoyl]piperazin-1-yl]-N-methylbenzamide]

ASMS ratio (%) (n = 1): 0.0% | ASMS ratio (%) (n = 2): 0.0%
Compound: CCOc1cncc(-c2cc(CN3CCN(c4ccc(C(=O)NS(=O)(=O)C(C)(C)C)nn4)CC3)cc(OC(F)(F)F)c2)c1 [B2L090-01, N-tert-Butylsulfonyl-6-[4-[[3-(5-ethoxypyridin-3-yl)-5-(trifluoromethoxy)phenyl]methyl]piperazin-1-yl]pyridazine-3-carboxamide]

Continued, compound first:

Compound: CCOc1cncc(-c2ccc(C(=O)N3CCN(c4ccc(C(=O)NS(=O)(=O)CC56CC7CC(CC(C7)C5)C6)cc4)CC3)cc2C)c1 [B2A026-01, N-(1-Adamantylmethylsulfonyl)-4-[4-[4-(5-ethoxypyridin-3-yl)-3-methylbenzoyl]piperazin-1-yl]benzamide]
ASMS ratio (%) n = 1 (AS-MS, mixture library, Bcl-2): 0.8% | ASMS ratio (%) n = 2 (AS-MS, mixture library, Bcl-2): −2.1%

Compound: CCOc1cccc(-c2cc(CN3CCN(c4ccc(C(=O)Nc5ccc(OC)cc5)nn4)CC3)cc(OC(C)C)c2)c1 [B1O083-01, 6-[4-[[3-(3-Ethoxyphenyl)-5-propan-2-yloxyphenyl]methyl]piperazin-1-yl]-N-(4-methoxyphenyl)pyridazine-3-carboxamide]
ASMS ratio (%) n = 1 [1]: 7.2% | ASMS ratio (%) n = 2 [1]: 1.0%

Compound: CCOc1cncc(-c2cc(CN3CCN(c4ccc(C(=O)Nc5ccc(OC)cc5)nn4)CC3)cc(OC(C)C)c2)c1 [B1O084-01]
ASMS ratio (%) n = 1 [1]: 6.8% | ASMS ratio (%) n = 2 [1]: 2.0%

Compound: CCOc1cncc(-c2cc(CN3CCN(c4ccc(C(=O)NCC(F)(F)F)cc4)CC3)cc(OC(C)C)c2)c1 [B1K058-01, 4-[4-[[3-(5-Ethoxypyridin-3-yl)-5-propan-2-yloxyphenyl]methyl]piperazin-1-yl]-N-(2,2,2-trifluoroethyl)benzamide]
ASMS ratio (%) n = 1 [2]: 1.3% | ASMS ratio (%) n = 2 [2]: 0.1%

Compound: CCOc1cncc(-c2ccc(CN3CCN(c4ccc(C(=O)N(CC)CC)cc4)CC3)c(OC)c2)c1 [B4J054-01, 4-[4-[[4-(5-Ethoxypyridin-3-yl)-2-methoxyphenyl]methyl]piperazin-1-yl]-N,N-diethylbenzamide]
ASMS ratio (%) n = 1 [1]: 0.0% | ASMS ratio (%) n = 2 [1]: −1.1%

Compound: CCOc1cncc(-c2cc(OC)c(CN3CCN(c4ccc(C(=O)NS(=O)(=O)CC56CC7CC(CC(C7)C5)C6)cc4)CC3)c(OC)c2)c1 [B2A060-01, N-(1-Adamantylmethylsulfonyl)-4-[4-[[4-(5-ethoxypyridin-3-yl)-2,6-dimethoxyphenyl]methyl]piperazin-1-yl]benzamide]
ASMS ratio (%) n = 1 (AS-MS, mixture library, Bcl-2): 0.0% | ASMS ratio (%) n = 2 (AS-MS, mixture library, Bcl-2): 0.0%

Compound: CCOc1cncc(-c2cc(C(=O)N3CCN(c4ccc(C(=O)NCC56CC7CC(CC(C7)C5)C6)cc4)CC3)cc(C(C)(C)C)c2)c1 [B1A038-01, N-(1-Adamantylmethyl)-4-[4-[3-tert-butyl-5-(5-ethoxypyridin-3-yl)benzoyl]piperazin-1-yl]benzamide]
ASMS ratio (%) n = 1 [2]: 6.5% | ASMS ratio (%) n = 2 [2]: −6.4%

Compound: CCOc1cccc(C#Cc2cc(C(=O)N3CCN(c4ccc(C(=O)NCC(F)(F)F)cc4)CC3)cc(C(F)(F)F)c2)c1 [B1K041-01, 4-[4-[3-[2-(3-Ethoxyphenyl)ethynyl]-5-(trifluoromethyl)benzoyl]piperazin-1-yl]-N-(2,2,2-trifluoroethyl)benzamide]
ASMS ratio (%) n = 1 [2]: 0.0% | ASMS ratio (%) n = 2 [2]: 0.0%

Compound: CCOc1cncc(-c2cc(C(=O)N3CCN(c4ccc(C(=O)Nc5ccc(OC)cc5)cc4)CC3)cc(C(C)(C)C)c2)c1 [B1O038-01, 4-[4-[3-tert-Butyl-5-(5-ethoxypyridin-3-yl)benzoyl]piperazin-1-yl]-N-(4-methoxyphenyl)benzamide]
ASMS ratio (%) n = 1 [1]: 2.8% | ASMS ratio (%) n = 2 [1]: −0.7%

Compound: CCOc1cncc(-c2ccc(C(=O)N3CCN(c4ccc(C(=O)NS(C)(=O)=O)nn4)CC3)c3ccccc23)c1 [B2I014-01, 6-[4-[4-(5-Ethoxypyridin-3-yl)naphthalene-1-carbonyl]piperazin-1-yl]-N-methylsulfonylpyridazine-3-carboxamide]
ASMS ratio (%) n = 1 (AS-MS, mixture library, Bcl-2): 1.0% | ASMS ratio (%) n = 2 (AS-MS, mixture library, Bcl-2): 2.3%

Compound: 6-[4-[4-(3-Ethoxyphenyl)naphthalene-1-carbonyl]piperazin-1-yl]-N-propylpyridazine-3-carboxamide [B1M071-01]
ASMS ratio (%) n = 1 [2]: 34.0% | ASMS ratio (%) n = 2 [2]: 24.4%

Compound: 4-[4-[4-(5-Ethoxypyridin-3-yl)-3-methylbenzoyl]piperazin-1-yl]-N-propylbenzamide [B1M039-01]
ASMS ratio (%) n = 1 [2]: 2.3% | ASMS ratio (%) n = 2 [2]: −0.6%

Compound: CCOc1cncc(-c2cc(CN3CCN(c4ccc(C(=O)N(CC)CC)cc4)CC3)cc(OCC)c2)c1 [B4J056-01]
ASMS ratio (%) n = 1 [1]: −1.4% | ASMS ratio (%) n = 2 [1]: −1.5%

Compound: CCOc1cccc(-c2ccc(C(=O)N3CCN(c4ccc(C(=O)NCC(F)(F)F)cc4)CC3)cc2C)c1 [B1K025-01, 4-[4-[4-(3-Ethoxyphenyl)-3-methylbenzoyl]piperazin-1-yl]-N-(2,2,2-trifluoroethyl)benzamide]
ASMS ratio (%) n = 1 [2]: 0.3% | ASMS ratio (%) n = 2 [2]: −0.8%
